ChEMBL document CHEMBL5543075, “Phenoxytacrine derivatives: Low-toxicity neuroprotectants exerting affinity to ifenprodil-binding site and cholinesterase inhibition” (Eur J Med Chem, 2024)
Active and inactive are the calls of the source. The rule behind the calls is not given here.

Experiments:
[1] = Cytotoxicity against CHO-K1 cells incubated for 24 hrs by MTT assay; type: toxicity, cell-based, Cricetulus griseus; conditions: Chinese hamster
Acetylcholinesterase = Acetylcholinesterase (Homo sapiens, UniProt P22303); assay: Inhibition of human AChE by spectrophotometric Ellman's method
Cholinesterase = Cholinesterase (Homo sapiens, UniProt P06276); assay: Inhibition of human BChE by spectrophotometric Ellman's method
[2] = target: Glutamate NMDA receptor; GRIN1/GRIN2B (Homo sapiens, UniProt Q05586+Q13224); assay: Inhibition of recombinant human GluN1/GluN2B receptor expressed in HEK293 cells assessed as reduction in glutamate induced current at 1 uM at -60 mV holding potential by electrophysiology assay relative to control; type: cell-based
Rattus norvegicus [3] = assay: Antialzheimer activity against scopolamine-induced cognitive impairment in Wistar rat assessed as decrease in mean distance from platform at 2 mg/kg, ip measured upto 4 days by morris water maze test (reference value: 51.7 +/-1.5 cm); type: functional; conditions: time <= 4 day
Rattus norvegicus [4] = assay: Antialzheimer activity against scopolamine-induced cognitive impairment in Wistar rat assessed as increase in number of platform crossing at 2 mg/kg, ip measured upto 4 days by morris water maze test; type: functional, organism-based; conditions: time <= 4.0 day

Acetylcholinesterase, sequence (P22303 whole entry): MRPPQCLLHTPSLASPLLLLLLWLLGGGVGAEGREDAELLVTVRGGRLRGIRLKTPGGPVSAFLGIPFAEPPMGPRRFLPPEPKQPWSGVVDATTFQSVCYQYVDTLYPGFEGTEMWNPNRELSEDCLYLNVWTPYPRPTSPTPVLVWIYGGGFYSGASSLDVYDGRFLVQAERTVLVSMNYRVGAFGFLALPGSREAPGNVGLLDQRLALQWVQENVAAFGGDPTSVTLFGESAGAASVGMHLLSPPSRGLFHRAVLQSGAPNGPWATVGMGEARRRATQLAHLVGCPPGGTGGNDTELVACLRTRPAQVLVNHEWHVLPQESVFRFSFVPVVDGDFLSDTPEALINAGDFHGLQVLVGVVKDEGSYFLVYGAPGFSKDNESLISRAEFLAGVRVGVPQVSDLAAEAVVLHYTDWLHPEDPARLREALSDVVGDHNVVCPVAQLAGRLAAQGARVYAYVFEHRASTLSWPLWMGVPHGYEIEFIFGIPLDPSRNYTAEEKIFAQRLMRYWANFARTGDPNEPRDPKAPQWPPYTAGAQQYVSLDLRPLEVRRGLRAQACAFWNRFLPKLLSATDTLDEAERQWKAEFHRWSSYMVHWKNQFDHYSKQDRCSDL
Cholinesterase, sequence (P06276 whole entry): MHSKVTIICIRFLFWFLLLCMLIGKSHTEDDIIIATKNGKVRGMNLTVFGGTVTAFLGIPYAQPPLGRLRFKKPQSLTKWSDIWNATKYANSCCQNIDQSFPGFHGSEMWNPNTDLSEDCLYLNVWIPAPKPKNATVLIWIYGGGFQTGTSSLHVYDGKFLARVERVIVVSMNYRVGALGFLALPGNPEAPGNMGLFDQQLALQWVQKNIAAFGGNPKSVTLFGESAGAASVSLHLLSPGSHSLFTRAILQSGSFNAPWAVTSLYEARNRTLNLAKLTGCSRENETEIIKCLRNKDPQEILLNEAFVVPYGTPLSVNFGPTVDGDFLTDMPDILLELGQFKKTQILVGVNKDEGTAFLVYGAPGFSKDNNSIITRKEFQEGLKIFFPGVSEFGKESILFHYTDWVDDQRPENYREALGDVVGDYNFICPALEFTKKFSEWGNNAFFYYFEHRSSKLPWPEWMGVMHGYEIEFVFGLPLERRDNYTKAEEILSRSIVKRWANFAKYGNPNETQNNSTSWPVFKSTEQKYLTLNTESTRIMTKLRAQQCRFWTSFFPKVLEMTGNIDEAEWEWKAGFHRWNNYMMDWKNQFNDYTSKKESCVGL

SMILES | IC50 at 24 h [1] [µM] | IC50 (Acetylcholinesterase) [µM] | IC50 (Cholinesterase) [µM] | inhibition [2] [%] | Activity (Rattus norvegicus [3]) [cm] | Activity (Rattus norvegicus [4])
Nc1c2c(nc3ccc(Oc4ccc(Cl)cc4)cc13)CCC2 | 28 | 5.07 | 3.6 | 8.7 | – | –
Cc1cccc(Oc2ccc3nc4c(c(N)c3c2)CCC4)c1 | 34 | 5.28 | 2.81 | 18.1 | – | –
COc1ccc(Oc2ccc3nc4c(c(N)c3c2)CCCCC4)cc1 | 28 | 3.63 | 2.74 | 29.6 | – | –
Cc1cccc(Oc2ccc3nc4c(c(N)c3c2)CCCC4)c1 | 20 | 9.19 | 3.66 | 21.2 | – | –
Nc1c2c(nc3ccc(Oc4ccccc4)cc13)CCC2 | 55 | 6.42 | 2.93 | 30.3 | – | –
Cc1ccc(Oc2ccc3nc4c(c(N)c3c2)CCCCC4)cc1 | 140 | 3.79 | 2.78 | 11.9 | – | –
Cc1ccccc1Oc1ccc2nc3c(c(N)c2c1)CCCCC3 | 26 | 5.8 | 4.17 | 8.8 | – | –
Cc1ccc(Oc2ccc3nc4c(c(N)c3c2)CCC4)cc1 | 76 | 8.36 | 7.34 | 18.7 | – | –
Cc1cc(C)cc(Oc2ccc3nc4c(c(N)c3c2)CCCCC4)c1 | 30 | 0.99 | 5.27 | 7.8 | – | –
Cc1cc(C)cc(Oc2ccc3nc4c(c(N)c3c2)CCCC4)c1 | 13 | 1.62 | 3.88 | 8.2 | – | –
COc1cccc(Oc2ccc3nc4c(c(N)c3c2)CCCC4)c1 | 27 | 2.64 | 2.76 | 14.7 | – | –
Cc1ccccc1Oc1ccc2nc3c(c(N)c2c1)CCCC3 | 25 | 3.78 | 4.15 | 19.3 | – | –
CC(C)(C)c1ccc(Oc2ccc3nc4c(c(N)c3c2)CCCCC4)cc1 | 9 | 71.6 | 2.51 | 10.1 | – | –
COc1cccc(Oc2ccc3nc4c(c(N)c3c2)CCC4)c1 | 85 | 5.25 | 7.96 | 16 | – | –
Cc1ccccc1Oc1ccc2nc3c(c(N)c2c1)CCC3.Cl | 78 | 28.2 | – | 16.6 | 59.5 | Active
CC(C)(C)c1ccc(Oc2ccc3nc4c(c(N)c3c2)CCCC4)cc1 | 5.1 | 1.96 | 6.61 | 16 | – | –
